Reference: PubChem BioAssay AID248 (DTP/NCI, 2004)
Where “and” joins values, the source holds several entries; their conditions need not be identical. Equal entries are not always repeated. Toxic doses and inconclusive results are not listed. Cut-off read from the data, not from the text of the source: active = T/C of 150% or more; inactive = T/C below 125%.

Tested on: L1210 leukemia ip in BDF1 mice, survival T/C
Assay: NCI In Vivo Anticancer Drug Screen. Data for tumor model L1210 Leukemia (intraperitoneal) in B6D2F1 (BDF1) mice
Settings: endpoint: mean survival time, higher = longer survival
Method in brief: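 Value reflects the ratio of survival in compound-treated mice to survival in vehicle-treated controls, with both groups carrying the same transplanted tumor.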

[1] = dose: 50.0 mg/kg/injection, schedule: Q04DX003 (ip), vehicle: saline
[2] = dose: 100.0 mg/kg/injection, schedule: Q01DX009 (ip), vehicle: saline
[3] = dose: 100.0 mg/kg/injection, schedule: Q04DX003 (ip), vehicle: saline
[4] = dose: 200.0 mg/kg/injection, schedule: Q01DX009 (ip), vehicle: saline
[5] = dose: 200.0 mg/kg/injection, schedule: Q04DX003 (ip), vehicle: saline
[6] = dose: 100.0 mg/kg/injection, schedule: Q01DX001 (ip), vehicle: saline
[7] = dose: 200.0 mg/kg/injection, schedule: Q01DX001 (ip), vehicle: saline
[8] = dose: 100.0 mg/kg/injection, schedule: Q01DX009 (ip), vehicle: Klucel (hydroxypropylcellulose) (HPC)
[9] = dose: 200.0 mg/kg/injection, schedule: Q01DX009 (ip), vehicle: Klucel (hydroxypropylcellulose) (HPC)
[10] = dose: 400.0 mg/kg/injection, schedule: Q01DX009 (ip), vehicle: Klucel (hydroxypropylcellulose) (HPC)

Measured: T/C

CCN(CC)CCOB(OCCN(CC)CC)OCCN(CC)CC
inactive: dose: 50.0 mg/kg/injection, schedule: Q01DX009 (ip), vehicle: saline 95 % of control and 101 % of control | [1] 96 % of control | [2] 101 % of control and 110 % of control | dose: 100.0 mg/kg/injection, schedule: Q04DX002 (ip), vehicle: saline 101 % of control and 106 % of control | [3] 96 % of control | [4] 97 % of control and 103 % of control | dose: 200.0 mg/kg/injection, schedule: Q04DX002 (ip), vehicle: saline 101 % of control and 103 % of control | [5] 100 % of control | dose: 400.0 mg/kg/injection, schedule: Q04DX002 (ip), vehicle: saline 95 % of control

COc1c([N+](=O)[O-])cc(-c2ccccc2)cc1[N+](=O)[O-]
inactive: [3] 87 % of control | [5] 87 % of control | dose: 400.0 mg/kg/injection, schedule: Q04DX003 (ip), vehicle: saline 87 % of control

N=C(N)SCCN
inactive: [6] 97 % of control | [2] 103 % of control | [7] 90 % of control | [4] 111 % of control | dose: 400.0 mg/kg/injection, schedule: Q01DX001 (ip), vehicle: saline 118 % of control

Cc1[nH]nc2c(NO)ncnc12
inactive: dose: 100.0 mg/kg/injection, schedule: Q01DX001 (ip), vehicle: other 98 % of control | dose: 200.0 mg/kg/injection, schedule: Q01DX001 (ip), vehicle: other 98 % of control | dose: 400.0 mg/kg/injection, schedule: Q01DX001 (ip), vehicle: other 102 % of control

CNCC/C=C1\c2ccccc2CCSc2ccccc21
inactive: dose: 25.0 mg/kg/injection, schedule: Q04DX003 (ip), vehicle: saline 98 % of control | [1] 101 % of control | [3] 95 % of control and 101 % of control

CCOCc1nc(NC(C)=O)nc(NC(C)=O)c1-c1ccc(Cl)cc1
inactive: dose: 75.0 mg/kg/injection, schedule: Q01DX001 (ip), vehicle: saline with Tween-80 100 % of control | dose: 150.0 mg/kg/injection, schedule: Q01DX001 (ip), vehicle: saline with Tween-80 96 % of control

C[N+](C)(C)CCC[N+](C)(C)CCN1C(=O)c2cccc3cccc(c23)C1=O
inactive: dose: 6.25 mg/kg/injection, schedule: Q01DX001 (ip), vehicle: saline 103 % of control | dose: 12.5 mg/kg/injection, schedule: Q01DX001 (ip), vehicle: saline 103 % of control | dose: 25.0 mg/kg/injection, schedule: Q01DX001 (ip), vehicle: saline 103 % of control | dose: 50.0 mg/kg/injection, schedule: Q01DX001 (ip), vehicle: saline 101 % of control

CC1CC(C)OC2(CCCc3ccccc32)O1 (stereo unspecified)
inactive: dose: 100.0 mg/kg/injection, schedule: Q04DX002 (ip), vehicle: saline with Tween-80 104 % of control | dose: 200.0 mg/kg/injection, schedule: Q04DX002 (ip), vehicle: saline with Tween-80 100 % of control | dose: 400.0 mg/kg/injection, schedule: Q04DX002 (ip), vehicle: saline with Tween-80 104 % of control

COc1cc(C=C(C(C)=O)C(C)=O)ccc1O
inactive: dose: 100.0 mg/kg/injection, schedule: Q04DX003 (ip), vehicle: saline with Tween-80 112 % of control | dose: 200.0 mg/kg/injection, schedule: Q04DX003 (ip), vehicle: saline with Tween-80 109 % of control

N#CC(SC(=N)N)c1ccccc1 (stereo unspecified)
inactive: [6] 103 % of control | [7] 96 % of control

CCOC(=O)CCCN(c1ccccc1C(=O)OC)S(=O)(=O)c1ccc(C)cc1
inactive: dose: 100.0 mg/kg/injection, schedule: Q01DX001 (ip), vehicle: carboxymethylcellulose (CMC) 97 % of control | dose: 200.0 mg/kg/injection, schedule: Q01DX001 (ip), vehicle: carboxymethylcellulose (CMC) 94 % of control | dose: 400.0 mg/kg/injection, schedule: Q01DX001 (ip), vehicle: carboxymethylcellulose (CMC) 103 % of control

CC1(C)N=C(N)N=C(N)N1c1cc(Cl)c(Cl)cc1Cl
inactive: dose: 6.0 mg/kg/injection, schedule: Q01DX009 (ip), vehicle: Klucel (hydroxypropylcellulose) (HPC) 105 % of control | dose: 12.0 mg/kg/injection, schedule: Q01DX009 (ip), vehicle: Klucel (hydroxypropylcellulose) (HPC) 103 % of control | dose: 12.0 mg/kg/injection, schedule: Q04DX003 (ip), vehicle: Klucel (hydroxypropylcellulose) (HPC) 95 % of control | dose: 25.0 mg/kg/injection, schedule: Q01DX009 (ip), vehicle: Klucel (hydroxypropylcellulose) (HPC) 96 % of control and 102 % of control | dose: 25.0 mg/kg/injection, schedule: Q04DX003 (ip), vehicle: Klucel (hydroxypropylcellulose) (HPC) 101 % of control | dose: 50.0 mg/kg/injection, schedule: Q01DX009 (ip), vehicle: Klucel (hydroxypropylcellulose) (HPC) 108 % of control | dose: 50.0 mg/kg/injection, schedule: Q04DX003 (ip), vehicle: Klucel (hydroxypropylcellulose) (HPC) 102 % of control

COc1cc(C)c(Cl)c(C)c1C(C)=O
inactive: [8] 101 % of control | dose: 100.0 mg/kg/injection, schedule: Q04DX003 (ip), vehicle: Klucel (hydroxypropylcellulose) (HPC) 95 % of control | [9] 100 % of control | dose: 200.0 mg/kg/injection, schedule: Q04DX003 (ip), vehicle: Klucel (hydroxypropylcellulose) (HPC) 101 % of control | [10] 101 % of control | dose: 400.0 mg/kg/injection, schedule: Q04DX003 (ip), vehicle: Klucel (hydroxypropylcellulose) (HPC) 97 % of control

C=C(C)C(Br)=C(C)C
inactive: dose: 100.0 mg/kg/injection, schedule: Q01DX001 (ip), vehicle: DMSO 96 % of control

CCOc1ccc(NC(C)=O)c(O)c1
inactive: dose: 75.0 mg/kg/injection, schedule: Q01DX001 (ip), vehicle: saline 101 % of control | dose: 150.0 mg/kg/injection, schedule: Q01DX001 (ip), vehicle: saline 98 % of control

CCOC(=O)NC1Cc2cc(C)cc(C)c21 (stereo unspecified)
inactive: dose: 10.0 mg/kg/injection, schedule: Q04DX002 (ip), vehicle: Klucel (hydroxypropylcellulose) (HPC) 120 % of control | dose: 20.0 mg/kg/injection, schedule: Q04DX002 (ip), vehicle: Klucel (hydroxypropylcellulose) (HPC) 100 % of control | dose: 40.0 mg/kg/injection, schedule: Q04DX002 (ip), vehicle: Klucel (hydroxypropylcellulose) (HPC) 103 % of control

C[N+](C)(C)C1(Cc2ccc(F)cc2)c2ccccc2-c2ccccc21
inactive: dose: 6.25 mg/kg/injection, schedule: Q01DX009 (ip), vehicle: saline with Tween-80 88 % of control | dose: 6.25 mg/kg/injection, schedule: Q04DX002 (ip), vehicle: saline with Tween-80 98 % of control | dose: 6.25 mg/kg/injection, schedule: Q04DX003 (ip), vehicle: saline with Tween-80 90 % of control | dose: 12.5 mg/kg/injection, schedule: Q04DX002 (ip), vehicle: saline with Tween-80 115 % of control | dose: 12.5 mg/kg/injection, schedule: Q04DX003 (ip), vehicle: saline with Tween-80 90 % of control | dose: 25.0 mg/kg/injection, schedule: Q01DX009 (ip), vehicle: saline with Tween-80 88 % of control | dose: 25.0 mg/kg/injection, schedule: Q04DX002 (ip), vehicle: saline with Tween-80 98 % of control | dose: 25.0 mg/kg/injection, schedule: Q04DX003 (ip), vehicle: saline with Tween-80 90 % of control

Clc1ccc2c(c1)ncn1nnnc21
inactive: [1] 95 % of control | [3] 104 % of control | [5] 93 % of control

O=C1NC(c2ccccc2)(c2ccccc2)C(=O)N1CN1CCN(CN2C(=O)NC(c3ccccc3)(c3ccccc3)C2=O)CC1
inactive: dose: 6.25 mg/kg/injection, schedule: Q01DX009 (ip), vehicle: saline sonified 99 % of control | dose: 12.5 mg/kg/injection, schedule: Q01DX009 (ip), vehicle: saline sonified 100 % of control | dose: 25.0 mg/kg/injection, schedule: Q01DX009 (ip), vehicle: saline sonified 94 % of control | dose: 100.0 mg/kg/injection, schedule: Q01DX001 (ip), vehicle: Klucel (hydroxypropylcellulose) (HPC) 108 % of control | dose: 200.0 mg/kg/injection, schedule: Q01DX001 (ip), vehicle: Klucel (hydroxypropylcellulose) (HPC) 92 % of control | dose: 400.0 mg/kg/injection, schedule: Q01DX001 (ip), vehicle: Klucel (hydroxypropylcellulose) (HPC) 92 % of control

CC(=O)N(N=O)c1ccc(N(N=O)C(C)=O)cc1
inactive: dose: 5.0 mg/kg/injection, schedule: Q01DX001 (ip), vehicle: saline 106 % of control | dose: 10.0 mg/kg/injection, schedule: Q01DX001 (ip), vehicle: saline 97 % of control | dose: 20.0 mg/kg/injection, schedule: Q01DX001 (ip), vehicle: saline 112 % of control

COc1cccc(NC(=O)NCCN(C)c2ccccc2)c1
inactive: [8] 104 % of control | [9] 88 % of control | [10] 92 % of control
